Measured values published in patent US8889902B2, “Acetylsalicylic acid salts” (priority 2009, dated 2014).

Key:
[1] = background statement; cited from earlier work
[2] = system: platelet aggregation; test: Platelet aggregation ex vivo after 3 days treatment; format: in vivo, rats
Method: Platelet aggregation was studied using whole blood impedance aggregometry on Multiplate (Multiple Platelet Function Analyzer, Dynabyte Medical, Germany) (Toth O et al, Thromb Haemost 2006; 96:781-788. […] Blood samples for in vitro experiment were collected from healthy donor B. […] In the ex vivo experiment blood was collected into plastic tubes covered with hirudin (Dynabyte Medical, Germany) from narcotized rats that were treated for 3 previous days with test substances p.o. The measurements were performed according to modified Dynabyte Medical protocol. […] After 5 min incubation and stirring at 37° C., measurements were initiated by adding of the appropriate agonist solution (sourced from Dynabyte Medical, Germany): After the thrombosis experiment the narcotized animals who received test substances for 3 days were used for platelet aggregation test ex vivo. […] Blood samples were used for measurement between 30 min and 4 h after collection. The measurements were performed according to modified Dynabyte Medical protocol (see above under Platelet aggregation).

[3] = system: Wistar rats; conditions: rats p.o., cited from earlier work
[4] = system: ICR mice; test: Acute toxicity of MASA to mice p.o.; format: in vivo; conditions: P = 0.05
Method: (§1) The acute toxicity of MASA was determined on Wistar rats and ICR mice by p.o. introduction.
(§2) Male IRC mice with body mass of 20-22 g and Wistar rats with body mass of 200-230 g were used. For determining the acute toxicity each dose was given to 6 animals, each next dose was increased by 500 mg/kg. LD50 was calculated after Karber by the method of Akhila J S et al, Current Sci 2007; 93:917-920 with modification for determining the dose confidence interval (Turner R In Screening Methods in Pharmacology, Acad. Press, New York, 1965, 61-63).
(§3) LD50 was calculated as follows: LD50=Least dose lethal to all in a group−Σ(a×b)/N N—number of animals in each group a—the dose difference b—the mean mortality (lethality in 2 neighbouring groups/2)
(§4) MASA was dissolved ex tempore in 0.2% agar-agar and introduced per os through catheter into stomach. […] Animals were observed till the Day 10 after introduction.

[5] = system: Wistar rats; test: Acute toxicity of MASA to rats p.o.; format: in vivo; conditions: P = 0.05
Method: as §1, §2, §3, §4

[6] = AA induced, 5 mg/kg/d p.o. 3 days
[7] = ADP induced, 5 mg/kg/d p.o. 3 days
[8] = PGE1 + ADP induced, 5 mg/kg/d p.o. 3 days
[9] = AA induced, 10 mg/kg/d p.o. 3 days
[10] = ADP induced, 10 mg/kg/d p.o. 3 days
[11] = PGE1 + ADP induced, 10 mg/kg/d p.o. 3 days

Row | Compound | solubility in water [1] | AUC [2, 6] | Amax [2, 6] | AUC [2, 7] | Amax [2, 7] | AUC [2, 8] | Amax [2, 8] | LD50 ([3]; given by Bayer AG) | Acute toxicity (LD50) ([3]; given by Boehringer Ingelheim, Acros Chemicals, Sigma-Aldrich) | confidence interval for LD50 [4] | AUC [2, 9] | Amax [2, 9] | AUC [2, 10] | Amax [2, 10] | AUC [2, 11] | Amax [2, 11] | confidence interval for LD50 [5]
1 | CC(=O)Oc1ccccc1C(=O)O [ASA, acetylsalicylic acid] | about 0.3% | 550 ± 31.3^2 AU*min | 86.1 ± 6.8^2 AU | 768 ± 53.2 AU*min | 150.3 ± 13.5 AU | 794 ± 48.6 AU*min | 147.2 ± 11.8 AU | > 1100 mg/kg | 200 mg/kg | – | – | – | – | – | – | – | –
2 | CC(=O)Oc1ccccc1C(=O)[O-].C[N+](C)(C)NCCC(=O)O [MASA, 3-(trimethylammonioamino)propanoate Acetylsalicylic Acid Addition Salt] | – | – | – | – | – | – | – | – | – | Factor f at P = 0.05 for this experiment is 1.32, therefore the confidence interval for LD50 is 1642-2860 (mg/kg). | 232 ± 44.1^2&a AU*min | 48.2 ± 9.7^3&a AU | 528 ± 46.5^1 AU*min | 75.5 ± 12.8^2 AU | 195 ± 35.3^3 AU*min | 41.4 ± 14.8^2 AU | Factor f at P = 0.05 for this experiment is 1.308, therefore the confidence interval for LD50 is 1720 ÷ 2944 (mg/kg).
